From the METLIN SMRT retention time set (Domingo-Almenara et al. 2019)

Experiment: gradient 5% acetonitrile 3 min, to 50% in 2 min, to 85% in 15 min, held 3 min, 100 µL/min
Settings: column: Zorbax Extend-C18 2.1 x 50 mm; eluents: water / acetonitrile, 0.1% formic acid
Method in brief: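 Retention times come from adduct peaks that were picked computationally and then checked by hand. The standards, pure and pooled in mixtures of ~100 molecules, were run on a Zorbax Extend-C18 column (2.1 × 50 mm, 1.8 μm) at 100 μL/min with water and acetonitrile, each with 0.1% formic acid. Detection was by quadrupole time-of-flight mass spectrometry in positive and negative ionization mode, with a dead volume of 40 μL and a dwell volume of 900 μL.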

In order of falling RP-LC retention time:
1. CCCCOc1ccc(-c2nc(C3CC(=O)N(c4ccc(F)c(Cl)c4)C3)no2)cc1 (centres undefined)  1370 s
2. CCn1nccc1-c1cccc(-c2noc(-c3ccc(Cl)cc3)n2)c1  1340 s
3. COc1ccc(-c2ccnn2-c2ccc(SCc3ccccc3F)nn2)cc1  1310 s
4. CCOC(=O)N1CCN(c2cc(-c3nc(-c4cccc(OC)c4OC)no3)c3ccccc3n2)CC1  1250 s
5. CCc1cccc(NC(=O)c2csc(-c3cn(C)c4ncccc34)n2)c1  1120 s
6. Cc1ccc(-c2nc(Nc3ccc(C)c(Cl)c3)sc2CC(=O)O)cc1  1100 s
7. Cc1ccc(SCC(=O)Nc2nc(-c3ccccc3)cs2)cc1  1100 s
8. COc1ccc(-n2c(=O)c3sccc3n(Cc3nc(-c4ccc(C)c(C)c4)no3)c2=O)cc1  1090 s
9. Cc1ccc(C)c(S(=O)(=O)N2CC=C(c3cn(C)c4ncccc34)CC2)c1  1070 s
10. CC(C)(C)OC(=O)N1CCN(c2ncc(S(=O)(=O)c3ccc(Cl)cc3)c(N)n2)CC1  1060 s
11. CCN1C(=O)c2ccccc2Oc2ccc(C(=O)NC3CCCCCC3)cc21  1050 s
12. COc1ccc(NC(=O)C2CCCN(c3nccnc3Sc3ccccc3)C2)cc1 (centres undefined)  1030 s
13. CC12COC3(C(=O)Nc4ccc(F)cc4)CC1CCC32C (centres undefined)  1030 s
14. Clc1ccc(Cc2nc(-c3cccc(-c4ccn[nH]4)c3)no2)cc1  1010 s
15. CSc1ccc(-c2noc(-c3nn(-c4cccc(Br)c4)ccc3=O)n2)cc1  988 s
16. CCN(CC)S(=O)(=O)c1ccc(NC(=O)c2oc3c(c2C)C(=O)CC(C)(C)C3)cc1  982 s
17. CSc1ccc(CNC(=O)C2CCCN(C(=O)Cc3cccc4ccccc34)C2)cc1 (centres undefined)  951 s
18. CC(C)N1Cc2cc(C(=O)N3CCC(Cc4ccccc4)CC3)sc2C1  949 s
19. O=C(Nc1nc2c(s1)CCCC2C(=O)N1CCc2ccccc21)c1ccc2c(c1)OCO2 (centres undefined)  949 s
20. CCc1noc(NC(C)=O)c1-c1ccc(OC)c(S(=O)(=O)NC2CCCCCCC2)c1  939 s
21. Cc1c(Cl)cccc1S(=O)(=O)NCC(O)c1ccc(C(F)(F)F)cc1 (centres undefined)  938 s
22. Cc1ccccc1CNc1nnc(-c2nc(C3CC3)no2)c2ccccc12  936 s
23. COc1ccc2c(c1)C1CC(C)(O2)N(C)C(=O)C1S(=O)(=O)c1ccccc1 (centres undefined)  916 s
24. CCc1ccc(CNC(=O)Cn2c(CC)nc3onc(C)c3c2=O)cc1  907 s
25. CC(C)n1c(=O)oc2cc(S(=O)(=O)N3CCN(C(=O)C4(c5ccccc5)CC4)CC3)ccc21  902 s
26. COc1ccc(C(=O)Nc2nnc(SCc3nnc(-c4ccccc4C)o3)s2)cc1OC  898 s
27. CCc1nc(-c2c(C)cc(C)nc2NC(=O)c2cccc(Br)c2)no1  898 s
28. Cc1c(Cl)cccc1N1C(=O)CN(S(C)(=O)=O)CC1(C)C(=O)NC1CCCCC1 (centres undefined)  892 s
29. O=C1NCN(c2ccccc2)C12CCN(CCCC(c1ccc(F)cc1)c1ccc(F)cc1)CC2  892 s
30. CCc1nnc(-c2cc(C)n(CC(=O)Nc3cc(C)cc(C)c3)c2C)o1  887 s
31. CCOC(=O)c1c(C)[nH]c(C(=O)N2CCC(C(C)C(=O)N3CCN(c4ccccc4)CC3)CC2)c1C (centres undefined)  871 s
32. COc1ccc(Nc2c(-c3ccc(C)cc3)nc3cnccn23)cc1  855 s
33. COc1cnc(SC)nc1Nc1ccc(C#N)cc1  853 s
34. CCOc1ccc(N2CCCCn3c2nc2c3c(=O)n(CCOC)c(=O)n2C)cc1  853 s
35. O=C(CN1C(=O)COc2ccc(C(=O)N3CCCCC3)cc21)NC1CCCCCCC1  844 s
36. CCOC(=O)c1c(C)[nH]c(CCC(=O)NCCc2c[nH]c3ccc(OC)cc23)c1C  837 s
37. CCOC(=O)c1nc(NCc2ccccc2Cl)c2ccccc2n1  834 s
38. Cc1cc(F)ccc1NC(=O)C1CCCN1S(=O)(=O)c1cc2c(cc1C)NC(=O)C(C)O2 (centres undefined)  812 s
39. Cc1ccc(C2=NC3(CCN(C(=O)c4ccc5[nH]ccc5c4)CC3)ON2)cc1  790 s
40. CC1CCN(c2ccc(-c3noc(CN4CCN(c5ccccc5)CC4)n3)cn2)CC1  787 s
41. CCN1c2ccccc2C(=O)NC12CCN(C(=O)Nc1ccccc1OC)CC2  781 s
42. O=C(Nc1ccc(-c2nnc3n2CCCC3)cc1)c1ccc2ccccc2n1  773 s
43. COc1ccc(-c2nnc(Cc3nc(-c4ccc(C)cc4)no3)o2)cc1OC  762 s
44. CCSc1nc(NCC(C)C)c2cnn(CCNC(=O)c3cn(C)nc3OC)c2n1  749 s
45. COc1ccc(-c2cn3cccnc3n2)cc1NC(=O)c1cccc(Br)c1  748 s
46. CCCN(CCC)S(=O)(=O)c1cccc(-c2cn3ccc(C)cc3n2)c1  744 s
47. CCS(=O)(=O)N1CCC(C(=O)NCCc2csc(-c3cccs3)n2)CC1  738 s
48. O=C(Cc1nnc2cc(-c3nc(C4CC4)no3)ccn12)NC1CCCCC1  737 s
49. Cc1ccc2c(Cl)c(C(=O)N3CCN(c4ccccn4)CC3)sc2c1  726 s
50. CCCn1ncc(N2CCC(C(=O)Nc3ccc(OC)cc3OC)CC2)cc1=O  723 s
51. CN(C)C(=O)c1csc(S(=O)(=O)N2CCC(C(=O)NC3CCCCC3)CC2)c1  720 s
52. O=S(=O)(c1cc(-c2noc(C3CC3)n2)cs1)N1CCN(c2ccccn2)CC1  719 s
53. CCS(=O)(=O)N(C1CC1)C1CCOC2(CCN(C(=O)C3CC3)CC2)C1 (centres undefined)  710 s
54. COc1cc2c(cc1CNC(=O)C1CC1)OCCCO2  709 s
55. COC(=O)c1cc2c(cn1)[nH]c1ccccc12  704 s
56. CCN1C(=O)c2cccnc2Sc2cc(CNC(=O)c3ccoc3)ccc21  702 s
57. Cc1cccn2cc(-c3ccc(NS(=O)(=O)c4ccc(Cl)cc4)cc3)nc12  701 s
58. COc1ccc(CCNC(=O)C2CCN(C(=O)C3Sc4ccccc4NC3=O)CC2)cc1OC (centres undefined)  694 s
59. CCCS(=O)(=O)N1CCC(CCOC)(NC(=O)C2CC2)CC1  686 s
60. COc1ccc(NS(=O)(=O)c2cc3n(c2)CCCNC3=O)cc1Cl  677 s
61. Cc1ncc2c(n1)CCN(C(=O)c1ccc(Br)cc1)C2  675 s
62. O=C(CSc1nccn1-c1ccc(C(=O)NCc2cccs2)cc1)Nc1ccccc1  671 s
63. Cc1nnc([C@@H]2CC(F)(F)CN2C(=O)COc2ccccc2)o1  667 s
64. CC(C)(C)NC[C@H](O)COc1cccc2[nH]c(C#N)cc12  663 s
65. COc1cccc(C(O)CN2CCN(c3ccccc3OC)CC2)c1 (centres undefined)  659 s
66. Cc1nnc(N2CCC(C(=O)N3CCCC3)CC2)c2nn(-c3ccccc3)c(C)c12  658 s
67. COc1ccccc1OCC(O)COC(N)=O (centres undefined)  650 s
68. O=C(c1ccc(CS(=O)(=O)c2cccc(C(F)(F)F)c2)o1)N1CCN(c2ccccn2)CC1  645 s
69. Cc1ccccc1Cn1c(CNC(=O)Cc2ccccc2)nc2ccccc21  645 s
70. O=S(=O)(c1ccc2c(c1)OCCO2)N1CCC(CN2CCCCCC2)CC1  645 s
71. Cn1ccnc1SCC(=O)Nc1nc(-c2ccc(F)cc2)cs1  639 s
72. Cc1cc(N2CCN(C)CC2)nc2ccc(NC(=S)N3CCC(Cc4ccccc4)CC3)cc12  636 s
73. Cc1cccc(-c2[nH]ncc2-c2ccc3ncccc3n2)n1  635 s
74. Cc1ccc(NC(=O)NCc2ccnc(N3CCSCC3)c2)c(C)c1  631 s
75. CCOC(=O)c1nc(NCCN(C)Cc2ccccc2)c2c(C)noc2n1  623 s
76. Cc1ccc(S(=O)(=O)Nc2ccc3nc(N4CCN(CCC#N)CC4)cc(C(=O)O)c3c2)cc1C  614 s
77. O=C(Nc1ccc2c(c1)OCCO2)N1CCCCCC1CN1CCOCC1 (centres undefined)  611 s
78. CCn1ncc(C(=O)N2CC[C@@H]3CN(S(C)(=O)=O)[C@@H]3C2)c1C  594 s
79. Cc1ncoc1C(=O)N1CCC(N2CC(OCC3CC3)C23CCOCC3)CC1 (centres undefined)  587 s
80. Cc1ccc(-c2cc3c4nnc(CCC(=O)NC5CCCCCC5)n4ccn3n2)cc1C  587 s
81. Cc1ncc2c(n1)C[C@@H]1CC[C@H]2N1C(=O)c1ccnn1C  584 s
82. O=S(=O)(NCCCCN1CCOC(c2ccccc2)C1)c1ccc(F)cc1F (centres undefined)  584 s
83. CN1CCN(CCNC(=O)Cn2c3ccccc3c3cnn(C)c(=O)c32)CC1  570 s
84. CO[C@H]1C(=O)N(C2CCN(S(=O)(=O)C(C)C)CC2)[C@H]1c1ccncc1  569 s
85. CN(C)CCNC(=O)c1ccc2c(c1)nnn2Cc1ccccc1  567 s
86. CCC1CCCCN1CCCNC(=O)C1=C(C)C(=O)OC12CCN(C(C)=O)CC2 (centres undefined)  565 s
87. O=C(C1CCCN(c2cnc3nccnc3c2)C1)N1CCC(N2CCCCC2)CC1 (centres undefined)  557 s
88. O=C1CCC2(C(=O)NCCN3CCOCC3)CCCC=C2N1c1ccccc1 (centres undefined)  553 s
89. O=C(NCc1ccccn1)c1ccc2c(c1)nc1n2CCCCC1  548 s
